Test results taken from patent US20230165831A1, “METHOD AND COMPOSITION FOR RENDERING CANCER CELLS SUSCEPTIBLE TO TREATMENT BY TARGETED ONCOGENETIC DRIVERS” (IMPACT BIOLIFE SCIENCE, INC., priority 2021, published 2023).
Read-outs that look alike come from different tables or passages of the source.

Legend:
[1] = tested on: pancreatic cancer line Capan-1 cells; assay: CTG (CellTiter-Glo) cell viability assay, 6×6 combo matrix, 72 h, Capan-1; format: cell-based; details: Homo sapiens, CAPAN-1; read-out: Relatively Cell inhibition of vehicle control
Experimental: To measure the cell inhibition effect of compounds and synergy effect of test articles on ten (10) cell lines using standard CTG assay.
b. A549, T47D, SK-OV-3, MKN45, SK-Hep-1, HT-29, Capan-1, 786-O and LNCaP cell line, for compounds and vehicle groups, the seeding density of cell lines is 3000 cells/80 µL per well. For blank groups, add 100 µL medium. For PBS groups, add 100 µL PBS.
8) Incubate the U87MG, A549, T47D, SK-OV-3, MKN45, SK-Hep-1, HT-29, Capan-1, 786-O and LNCaP cells overnight at 37° C./5% CO2.
5) Incubate the plates at 37° C./5% CO2 for 72 hours.
6) Read plates in Envision.

[2] = tested on: breast cancer line T47D cells;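 note: luminescence read-out after 72 h at 37 °C under 5% CO2, with medium-only wells as blanks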
Experimental: (§1) 7) Using complete cell medium, adjust the volume of the suspension to achieve a cell concentration.
(§2) Solid compound of cis-platinum was solubilized in PBS to a stock solution of 3.333 mM.
(§3) Final volume is 100 µL per well at this point.
(§4) 1) Incubate the plates at room temperature and away from light for 30 minutes.
(§5) 3) Add 100 µL /well of CellTiter-Glo® Reagent in each well. Avoid light.
(§6) 4) Mix contents for 2 minutes on an orbital shaker.
(§7) 5) Incubate plate at room temperature for 10 minutes to stabilize the luminescent signal.

[3] = tested on: prostate adenocarcinoma line LNCap cells;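 note: luminescence signal read after adding CellTiter-Glo reagent, with cells exposed to compounds for 72 h at 37 °C under 5% CO2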
[4] = tested on: kidney cancer line 786-O cells;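 note: luminescence read-out after adding CellTiter-Glo reagent, with cells incubated at 37 °C under 5% CO2 during compound exposure, part of a ten cell line synergy study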
[5] = tested on: Liver cancer line SK-HEP-1 cells;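 note: luminescent signal read after 72 h compound exposure at 37 °C under 5% CO2, with medium-only wells serving as blank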
Experimental: as §1, §2, §3, §4, §5, §6, §7

[6] = tested on: ovarian cancer line SK-OV3 cells;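 note: luminescent signal read after CellTiter-Glo addition, cells exposed to compounds for 72 h at 37 °C under 5% CO2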
Experimental: as §1, §2, §3, §4, §5, §6, §7

[7] = tested on: breast cancer line T47D cells; assay: CTG (CellTiter-Glo) cell viability assay, 6×6 combo matrix, 72 h, T47D; details: Homo sapiens;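 note: luminescence read-out after 72 h at 37 °C under 5% CO2, with medium-only wells as blanks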
Experimental: as §1, §2, §3, §4, §5, §6, §7

[8] = tested on: colorectal cancer line HT29 cells; assay: CTG (CellTiter-Glo) cell viability assay, 6×6 combo matrix, 72 h, HT29; details: Homo sapiens, HT-29, read-out: Relatively Cell inhibition of vehicle control(%);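 note: cells exposed to compounds for 72 hours at 37 °C under 5% CO2, then viability read as luminescence after adding CellTiter-Glo Reagent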
Experimental: as §1, §2, §3, §4, §5, §6, §7

[9] = tested on: lung adenocarcinoma line A549 cells; assay: CTG (CellTiter-Glo) cell viability assay, 6×6 combo matrix, 72 h, A549; details: Homo sapiens, A549, read-out: Relatively Cell inhibition of vehicle control(%);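 note: luminescent ATP readout with CellTiter-Glo after compound exposure, used to assess growth inhibition and combination synergy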
Experimental: as §1, §2, §3, §4, §5, §6, §7

[10] = tested on: glioblastoma line U87MG cells; assay: CTG (CellTiter-Glo) cell viability assay, 6×6 combo matrix, 72 h, U87MG; details: Homo sapiens, U-87 MG;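 note: U87MG cells seeded at 2000 per well, exposed 72 h, viability read by CellTiter-Glo luminescence, inhibition expressed relative to vehicle-treated wells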
[11] = tested on: prostate adenocarcinoma line LNCap cells; assay: CTG (CellTiter-Glo) cell viability assay, 6×6 combo matrix, 72 h, LNCaP; details: Homo sapiens, LNCaP;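 note: luminescence signal read after adding CellTiter-Glo reagent, with cells exposed to compounds for 72 h at 37 °C under 5% CO2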
[12] = tested on: kidney cancer line 786-O cells; assay: CTG (CellTiter-Glo) cell viability assay, 6×6 combo matrix, 72 h, 786-O; details: Homo sapiens, 786-0, read-out: Relatively Cell inhibition of vehicle control;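 note: luminescence read-out after adding CellTiter-Glo reagent, with cells incubated at 37 °C under 5% CO2 during compound exposure, part of a ten cell line synergy study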
[13] = tested on: Liver cancer line SK-HEP-1 cells; assay: CTG (CellTiter-Glo) cell viability assay, 6×6 combo matrix, 72 h, SK-Hep-1; details: Homo sapiens;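 note: luminescent signal read after 72 h compound exposure at 37 °C under 5% CO2, with medium-only wells serving as blank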
Experimental: as §1, §2, §3, §4, §5, §6, §7

COc1cccc2c1C(=O)c1c(O)c3c(c(O)c1C2=O)C[C@@](O)(C(=O)CO)C[C@@H]3O[C@H]1C[C@H](N)[C@H](O)[C@H](C)O1 [doxorubicin]
inhibition at 0.08 µM [1]: 44.8% | inhibition at 0.4 µM [1]: 68% | inhibition at 2 µM [1]: 86.9% | inhibition at 10 µM [1]: 74.9% | inhibition [2]: 0.17% | inhibition [3]: 7.17% | inhibition [4]: 3.98% | inhibition [5]: 4.48% | inhibition [6]: 2.75% | inhibition at […] ([7]; read-out: Relatively Cell inhibition of vehicle control(%), T47D, 16 nM doxorubicin only (myricetin 0)): 6.02% | inhibition at 0.08 µM ([7]; read-out: Relatively Cell inhibition of vehicle control(%), T47D, 80 nM doxorubicin only (LB-1 0)): 19.3% | inhibition at 0.08 µM ([7]; read-out: Relatively Cell inhibition of vehicle control(%), T47D, 80 nM doxorubicin only (myricetin 0)): 23% | inhibition at 0.4 µM ([7]; read-out: Relatively Cell inhibition of vehicle control(%), T47D, 400 nM doxorubicin only (LB-1 0)): 50.2% | inhibition at 0.4 µM ([7]; read-out: Relatively Cell inhibition of vehicle control(%), T47D, 400 nM doxorubicin only (myricetin 0)): 53.7% | inhibition at 2 µM ([7]; read-out: Relatively Cell inhibition of vehicle control(%), T47D, 2000 nM doxorubicin only (LB-1 0)): 51.6% | inhibition at 2 µM ([7]; read-out: Relatively Cell inhibition of vehicle control(%), T47D, 2000 nM doxorubicin only (myricetin 0)): 59% | inhibition at 10 µM ([7]; read-out: Relatively Cell inhibition of vehicle control(%), T47D, 10000 nM doxorubicin only (LB-1 0)): 45.3% | inhibition at 10 µM ([7]; read-out: Relatively Cell inhibition of vehicle control(%), T47D, 10000 nM doxorubicin only (myricetin 0)): 48.1% | inhibition at 0.08 µM [8]: 25.6% | inhibition at 0.4 µM [8]: 61.1% | inhibition at 2 µM [8]: 92.3% | inhibition at 10 µM [8]: 79.1% | inhibition at 0.08 µM [9]: 42.2% | inhibition at 0.4 µM [9]: 61.4% | inhibition at 2 µM [9]: 95.8% | inhibition at 10 µM [9]: 94.3% | inhibition at 0.08 µM ([10]; 72 h, read-out: Relatively Cell inhibition of vehicle control(%), U87MG, 80 nM doxorubicin only (LB-1 0), 72 h): 50% | inhibition at 0.4 µM ([10]; 72 h, read-out: Relatively Cell inhibition of vehicle control(%), U87MG, 400 nM doxorubicin only (LB-1 0), 72 h): 91.3% | inhibition at 2 µM ([10]; 72 h, read-out: Relatively Cell inhibition of vehicle control(%), U87MG, 2000 nM doxorubicin only (LB-1 0), 72 h): 72.4% | inhibition at 10 µM ([10]; 72 h, read-out: Relatively Cell inhibition of vehicle control(%), U87MG, 10000 nM doxorubicin only (LB-1 0), 72 h): 78.4% | inhibition at […] ([10]; read-out: Relatively Cell inhibition of vehicle control(%), doxorubicin 16 nM only): 27.4% | inhibition at 0.08 µM ([10]; read-out: Relatively Cell inhibition of vehicle control(%), doxorubicin 80 nM only): 52.5% | inhibition at 0.4 µM ([10]; read-out: Relatively Cell inhibition of vehicle control(%), doxorubicin 400 nM only): 93% | inhibition at 2 µM ([10]; read-out: Relatively Cell inhibition of vehicle control(%), doxorubicin 2000 nM only): 78.3% | inhibition at 10 µM ([10]; read-out: Relatively Cell inhibition of vehicle control(%), doxorubicin 10000 nM only): 80.8% | inhibition at […] ([11]; read-out: Relatively Cell inhibition of vehicle control(%), doxorubicin 16 nM only (myricetin plate)): 2.69% | inhibition at 0.08 µM ([11]; read-out: Relatively Cell inhibition of vehicle control(%), doxorubicin 80 nM only (LB-1 plate)): 29.9% | inhibition at 0.08 µM ([11]; read-out: Relatively Cell inhibition of vehicle control(%), doxorubicin 80 nM only (myricetin plate)): 31.7% | inhibition at 0.4 µM ([11]; read-out: Relatively Cell inhibition of vehicle control(%), doxorubicin 400 nM only (LB-1 plate)): 65.2% | inhibition at 0.4 µM ([11]; read-out: Relatively Cell inhibition of vehicle control(%), doxorubicin 400 nM only (myricetin plate)): 67.3% | inhibition at 2 µM ([11]; read-out: Relatively Cell inhibition of vehicle control(%), doxorubicin 2000 nM only (LB-1 plate)): 97.2% | inhibition at 2 µM ([11]; read-out: Relatively Cell inhibition of vehicle control(%), doxorubicin 2000 nM only (myricetin plate)): 97% | inhibition at 10 µM ([11]; read-out: Relatively Cell inhibition of vehicle control(%), doxorubicin 10000 nM only (LB-1 plate)): 87.8% | inhibition at 10 µM ([11]; read-out: Relatively Cell inhibition of vehicle control(%), doxorubicin 10000 nM only (myricetin plate)): 88.9% | inhibition at 0.08 µM [12]: 24% | inhibition at 0.4 µM [12]: 64.9% | inhibition at 2 µM [12]: 76.2% | inhibition at 10 µM [12]: 83.8% | inhibition at […] ([13]; SK-HEP1, read-out: Relatively Cell inhibition of vehicle control, doxorubicin 16 nM only (myricetin table)): 6.89% | inhibition at 0.08 µM ([13]; SK-HEP1, read-out: Relatively Cell inhibition of vehicle control, doxorubicin 80 nM only (LB-1 table)): 31.3% | inhibition at 0.08 µM ([13]; SK-HEP1, read-out: Relatively Cell inhibition of vehicle control, doxorubicin 80 nM only (myricetin table)): 25.5% | inhibition at 0.4 µM ([13]; SK-HEP1, read-out: Relatively Cell inhibition of vehicle control, doxorubicin 400 nM only (LB-1 table)): 66.2% | inhibition at 0.4 µM ([13]; SK-HEP1, read-out: Relatively Cell inhibition of vehicle control, doxorubicin 400 nM only (myricetin table)): 68.5% | inhibition at 2 µM ([13]; SK-HEP1, read-out: Relatively Cell inhibition of vehicle control, doxorubicin 2000 nM only (LB-1 table)): 98.6% | inhibition at 2 µM ([13]; SK-HEP1, read-out: Relatively Cell inhibition of vehicle control, doxorubicin 2000 nM only (myricetin table)): 98.5% | inhibition at 10 µM ([13]; SK-HEP1, read-out: Relatively Cell inhibition of vehicle control, doxorubicin 10000 nM only (LB-1 table)): 99.4% | inhibition at 10 µM ([13]; SK-HEP1, read-out: Relatively Cell inhibition of vehicle control, doxorubicin 10000 nM only (myricetin table)): 99.4%
